Measured values as given in a melting point compilation (Tetko et al.; mined from patent text by program, amines drawn as free bases though some values may be those of a salt).

First: Cc1nc2ccccc2cc1NC(=O)N1CCN(c2cc(Cl)cc(Cl)c2)CC1
Second: Nc1nc(-c2cc(Cl)ccc2Cl)nc(N2CCCC2)n1
The melting point of the first is higher: 247 to 249 °C for the first, 191 to 193 °C for the second.

Going from `CCc1nc2c([C@H](O)CO)cccc2cc1C` to `CCNCc1ccc2nc(C)[nH]c(=O)c2c1`, the melting point rises from 66 °C to > 260 °C.

First: CCCCC(=O)c1c(-c2ccc3cc(OCC(=O)OCC)ccc3c2)oc2ccc(Cl)cc12
Second: CCCCC(=O)Nc1ccc(Cl)c(-n2nc(CCCC)n(Cc3ccc(-c4ccccc4S(=O)(=O)NC(=O)OC(C)(C)C)cc3)c2=O)c1
The melting point of the first is lower: 80 to 83 °C for the first, 177 to 179 °C for the second.

Compared with `Nc1nc(Cc2ccc(Br)cc2)cc(C2CCN(C(=O)c3ccc4c(c3)OCO4)CC2)n1`, `O=C(NCC1CCN(C[C@H]2COc3ccc(Cl)cc3O2)CC1)c1cccnc1` is higher in melting point: 162 °C for the first, 172 to 174 °C for the second.

First: CC(C)(C)C(NC(=O)c1ccc(Cl)cc1)NC(=NC#N)NCc1ccccn1 (stereo not given)
Second: COc1ncccc1Nc1c(NC(NC(=O)c2cccc(C)c2)C(C)(C)Cc2ccccc2)c(=O)c1=O (stereo not given)
The melting point of the first is lower: 184 to 185 °C for the first, 233 to 235 °C for the second.

First: CCCc1c[nH]c(=O)[nH]c1=O
Second: CCCCn1sc2nc3ccccc3n2c1=O
The melting point of the first is higher: 286 to 287 °C for the first, 153 to 154 °C for the second.

First: O=C(Nc1ccc(C(F)(F)F)cc1)N1CCC(c2ccccc2)C(c2ccccc2)=N1 (stereo not given)
Second: COc1ccccc1NC(=O)N1CCC(=O)C(C(c2ccccc2)c2ccccc2)C1 (stereo not given)
The melting point of the first is higher: 171 to 173 °C for the first, 150 to 151 °C for the second.

First: O=C(NC1(COc2ccc(Br)cc2)COC1)OCc1ccccc1
Second: O=C(O)C1=C(c2ccccc2)c2cc(Br)ccc2CO1
The melting point of the first is lower: 101 to 103 °C for the first, 205 to 206 °C for the second.

First: Cc1cc(-c2ccccc2)nn1CCN
Second: Cc1nc(N)c2ncn(CCOc3ccccc3)c2c1C
The melting point of the first is lower: 131 to 132 °C for the first, 197 to 199 °C for the second.

First: COc1cc2c(OC)nc3c4ccccc4nc(OC)c3c2cc1OC
Second: COc1cc2c3ccc(OC)c(OC)c3n(C(=O)c3ccc(-c4ccccc4)cc3)c2cc1OC
The melting point of the first is higher: 173 to 175 °C for the first, 150 to 153 °C for the second.

First: Cc1ccc(Cl)c(Nc2ccccc2C(N)=S)c1Cl
Second: CCCc1cnc2c(NC(=O)c3c(Cl)cccc3Cl)cccc2c1NNC(C)=O
The melting point of the first is lower: 134 to 136 °C for the first, 223 to 226 °C for the second.

Compared with `CCc1cccc(CC)c1NC(=O)NC1(c2ccccc2)CCCC1`, `CCCSc1ncc(CC(NC(=O)c2ccccc2)C(=O)O)n1Cc1ccccc1Cl` (stereo not given) is lower in melting point: 215 to 218 °C for the first, 210 to 212 °C for the second.

First: COC(OC)C(=O)NC1CCN(C[C@@]23C[C@@H](c4ccccc42)c2ccc(Cl)cc23)CC1
Second: COc1ccc(C(=O)N2CCc3cc(OCc4ccccc4)c(OC)cc3C2=O)cc1OC
The melting point of the first is lower: 188 to 189 °C for the first, 200 to 201 °C for the second.

First: CN(C)C=Nc1cccc2nc(N3CCN(C)CC3)c(N3CCN(C)CC3)nc12
Second: COc1ccc(N2CCN(c3c(C)c(C)c4c(c3C)OC(C)(C)C4(O)c3ccc(C)cc3)CC2)cc1 (stereo not given)
The melting point of the first is higher: 183 to 186 °C for the first, 162 to 164 °C for the second.

First: O=C(NC(=O)c1c(F)cccc1F)Nc1ccc(C(F)(F)F)cc1F
Second: O=C(Nc1ccc(-n2nc(C(F)(F)F)cc2C(F)(F)F)cc1)C1CC1
The melting point of the first is lower: 197 °C for the first, 204 to 205 °C for the second.

Compared with `CCCCOCCOc1ccc(-c2ccc3c(c2)C=C(C(=O)Nc2ccc(S(=O)Cc4nccn4CC(=O)O)cc2)CCN3CC(C)C)cc1` (stereo not given), `COc1ccc(S(=O)(=O)Nc2ccccc2NC(=O)c2cccs2)cc1` is lower in melting point: 146 to 148 °C for the first, 136 to 137 °C for the second.

First: CC(=O)N1CCS(=O)c2ccccc2C1 (stereo not given)
Second: Cn1c(C(=O)N=[N+]=[N-])c(-c2ccccc2)c2cc([N+](=O)[O-])ccc21
The melting point of the first is lower: 156 to 157 °C for the first, 262 to 264 °C for the second.

Compared with `CSC(=Nc1c(C)nn(C)c1C)Nc1cc(Cl)ccc1C`, `COc1cc(C)nc(Nc2ccc(Cl)cc2)n1` is lower in melting point: 134 to 135 °C for the first, 101 to 103 °C for the second.

Compared with `COC(=O)c1ccc(C(O)c2ccc(C(=O)OC)cc2)cc1`, `N#CC(=NOS(=O)(=O)c1ccc(C(=O)O)cc1)c1ccccc1` is higher in melting point: 116 °C for the first, 250 to 251 °C for the second.

Compared with `COc1cc(COc2ccc(S(=O)(=O)c3ccc(C)nc3Nc3c(C)cc(C)cc3C)cc2)cc(OC)c1`, `Cc1ccc(S(=O)(=O)OCC2COc3cc(C)ccc3O2)cc1` (stereo not given) is lower in melting point: 107 to 109 °C for the first, 84 °C for the second.

First: O=C1CCC(=O)N1c1cccc(OCc2nc3ccccc3s2)c1
Second: CCn1cc(-c2ccccc2)nc(S(=O)(=O)Cc2ccc(Cl)cc2)c1=O
The melting point of the first is higher: 175 to 176 °C for the first, 146 to 148 °C for the second.

First: CCCn1nc2c(N)nc3ccccc3c2c1CCN(CC)C(N)=O
Second: Cn1cc(Br)cc(Nc2ccncn2)c1=O
The melting point of the first is lower: 206 to 207 °C for the first, 217 to 219 °C for the second.

Compared with `CC(=O)c1ccc(=O)[nH]c1C=CN(C)C`, `Cc1cc(C)cc(-c2nc(NC(=O)c3cccnc3)sc2-c2ccncc2)c1` is higher in melting point: 238 to 240 °C for the first, 267 to 270 °C for the second.

First: O=C(NC(O)C(F)(F)F)c1snc(Cl)c1Cl (stereo not given)
Second: Cc1cc(OC(F)(F)C(F)F)ccc1N1C(=O)c2cccc(Cl)c2C1=O
The melting point of the first is lower: 90 to 93 °C for the first, 121 to 122 °C for the second.

Compared with `c1ccc(NC2(c3ccccc3)N=C(c3ccccc3)N=C2c2ccccc2)cc1` (stereo not given), `O=C(Nc1ccc(F)cc1)C1=C(C(=O)Nc2cc(OC3CCCC3)c(Cl)cc2F)CCCC1` is higher in melting point: 157 °C for the first, 209 to 210 °C for the second.
